Data taken from ChEMBL document CHEMBL4265928, “Design, synthesis, and biological evaluation of 2-(phenoxyaryl)-3-urea derivatives as novel P2Y1 receptor antagonists” (Eur J Med Chem, 2018).

Key:
Rattus norvegicus = experiment: Antiplatelet activity in Sprague-Dawley rat platelet rich plasma assessed as inhibition of ADP-induced platelet aggregation at 3 mg/kg, ig after 2 hrs relative to control; type: functional; details: po
P2Y purinoceptor 1 = P2Y purinoceptor 1 (Homo sapiens, UniProt P47900); experiment: Antagonist activity at P2Y1 (unknown origin) expressed in human 1321N1 cells assessed as induction of calcium stimulation by fluo-4 dye based assay; type: functional, cell-based
Chain of P2Y purinoceptor 1 (P47900 whole entry): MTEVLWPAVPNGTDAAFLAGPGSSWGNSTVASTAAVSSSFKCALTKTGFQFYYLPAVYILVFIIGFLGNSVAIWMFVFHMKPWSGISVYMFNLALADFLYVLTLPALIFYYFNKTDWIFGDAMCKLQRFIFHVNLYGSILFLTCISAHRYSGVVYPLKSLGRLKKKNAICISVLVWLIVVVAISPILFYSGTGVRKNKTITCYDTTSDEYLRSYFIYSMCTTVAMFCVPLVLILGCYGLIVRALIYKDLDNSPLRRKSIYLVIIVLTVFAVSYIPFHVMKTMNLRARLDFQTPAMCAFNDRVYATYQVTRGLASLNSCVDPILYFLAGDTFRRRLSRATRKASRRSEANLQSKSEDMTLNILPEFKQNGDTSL

SMILES | inhibition in vivo at 3 mg/kg (Rattus norvegicus) [%] | IC50 (P2Y purinoceptor 1) [µM]
CC(C)(C)c1ccccc1Oc1ncccc1NC(=O)Nc1ccc(OC(F)(F)F)cc1 | 67.4 | 
Cc1ccc(NC(=O)Nc2ccc(OC(F)(F)F)cc2)c(Oc2ccccc2C(C)(C)C)n1 | 68.9 | 0.21
CC(C)(C)c1ccccc1Oc1ncccc1NC(=O)N[C@H]1CC[C@H](C)CC1 | 57.6 | 7.05
COC(=O)c1ccc(NC(=O)Nc2cccnc2Oc2ccccc2C(C)(C)C)s1 |  | 12.9
CC(C)(C)c1ccccc1Oc1ncccc1NC(=O)NC1CCCC1 |  | 2.41
CC1CCCCC1NC(=O)Nc1cccnc1Oc1ccccc1C(C)(C)C (configuration not stated) |  | 0.82
CCOC(=O)c1ccc(NC(=O)Nc2cccnc2Oc2ccccc2C(C)(C)C)s1 | 50.6 | 12.5
CC(C)(C)c1ccccc1Oc1ncccc1NC(=O)NC1C2CC3CC(C2)CC1C3 (configuration not stated) | 26.7 | 0.62
CCCCNC(=O)Nc1cccnc1Oc1ccccc1C(C)(C)C | 22 | 9.98
CC(C)(C)c1ccccc1Oc1ncccc1NC(=O)Nc1ccc(C(=O)OCc2ccccc2)s1 | 69.4 | 7.19
CC(C)(C)c1ccccc1Oc1ccccc1NC(=O)Nc1ccc(OC(F)(F)F)cc1 |  | 7.53
